Measured values from patent US20150045553A1, “PHENYLTRIAZOLE DERIVATIVE” (TOSHO PHARMACEUTICAL CO., LTD, priority 2011, published 2015).
Like-named read-outs stand apart in the source and are kept apart here.

How the values were obtained:
H3 receptor = target: T1, H3 receptor (Rattus norvegicus, UniProt Q9QYN8); experiment: Rat H3 receptor binding test (N-α-methyl[3H]histamine, frontal cortex membrane fraction); settings: N-α-methyl[3H]histamine 0.75 nM, room temperature, an hour
T1 construct: The frontal cortex dissected from rats was homogenized; from tissue; host or cells: rat frontal cortex membrane fraction
Method: (Test 1: Rat H3 Receptor Binding Test)
The frontal cortex dissected from rats was homogenized with a Teflon (registered trademark) homogenizer in a 50 mM Tris-HCl buffer solution (pH 7.4) containing a protease inhibitor (Complete EDTA-free; Roche Diagnostics) and 5 mM EDTA. The homogenate was centrifuged at 48,000×g for 15 minutes. The supernatant was removed and the pellet was suspended in a 50 mM Tris-HCl buffer solution (pH 7.4) containing 5 mM EDTA and centrifuged at 48,000×g for 15 minutes. The supernatant was removed and the pellet was suspended in a 50 mM Tris-HCl buffer solution (pH 7.4) containing 5 mM EDTA to give a membrane fraction. The membrane fraction (the protein content in the final reaction mixture: 75 μg), N-α-methyl[^3H]histamine (PerkinElmer; final concentration: 0.75 nM) and a test drug were mixed and subjected to reaction at room temperature for an hour. After the end of the reaction, the reaction mixture was suction filtered through a 96-well GF/C filter plate pretreated with 0.3% polyethyleneimine; the filters were then washed five times with a 50 mM Tris-HCl buffer solution (pH 7.4) containing 5 mM EDTA. After the washing, the filters were dried and a scintillator was added to measure the residual radioactivity on the filter with TopCount (PerkinElmer).
The residual radioactivity in the presence of 10 μM thioperamide was taken as indicative of nonspecific binding and the difference from the residual radioactivity in the absence of thioperamide was taken as indicative of specific binding. Each of the test drugs was dissolved and diluted in DMSO at varying concentrations to plot a dose-response curve from the corresponding residual radioactivities; the concentration of test drug that inhibited the specific binding by 50% (IC50) was determined from this curve.

histamine H3 receptor = target: T2, histamine H3 receptor (Rattus norvegicus, UniProt Q9QYN8); experiment: [35S]GTP-γ-S binding test (R(−)-α-methyl histamine stimulated, frontal cortex membrane fraction); type: biochemical; settings: R(−)-α-methyl histamine 300 nM, [35S]GTP-γ-S 0.3 nM
T2 construct: The frontal cortex dissected from rats was homogenized; from tissue; host or cells: rat frontal cortex membrane fraction
Method: The frontal cortex dissected from rats was homogenized with a Teflon (registered trademark) homogenizer in a 30 mM Tris-HCl buffer solution (pH 7.4) containing 2.5 mM calcium chloride dihydrate. The homogenate was centrifuged at 48,000×g for 15 minutes. The supernatant was removed and the pellet was suspended in a 30 mM Tris-HCl buffer solution (pH 7.4) containing 2.5 mM calcium chloride dihydrate and centrifuged at 48,000×g for 15 minutes. The supernatant was removed and the pellet was suspended in a 30 mM Tris-HCl buffer solution (pH 7.4) containing 2.5 mM calcium chloride dihydrate and after incubation at 37° C. for 30 minutes, the suspension was centrifuged at 48,000×g for 15 minutes. The resulting supernatant was removed and the pellet was suspended in a 20 mM HEPES buffer solution (pH 7.4) containing 100 mM sodium chloride and 10 mM magnesium chloride to give a membrane fraction. […] After the washing, the filters were dried and a scintillator was added to measure the residual radioactivity on the filter with TopCount (PerkinElmer).
The residual radioactivity in the absence of R(−)-α-methyl histamine was taken as indicative of nonspecific binding and the difference from the residual radioactivity in the presence of R(−)-α-methyl histamine was taken as indicative of specific binding. […]

[1] = Rat in vivo pharmacokinetic study (distribution among plasma, brain and cerebrospinal fluid); settings: SD rats, single oral administration, 3 mg/kg, an hour after the administration
Method: (Test 3: Rat in vivo pharmacokinetic study)
SD rats were given a single oral administration of Compound No. 8, 19 or 22 at a dose of 3 mg/kg and an hour after the administration, the compound's distribution among the plasma, brain, and cerebrospinal fluid was checked. Quantification was effected by a high-performance liquid chromatography/tandem mass spectrometer API 4000 (LC-MS/MS; AB Sciex).

[2] = target: T3, P-glycoprotein (human MDR1) (Homo sapiens, UniProt P08183); experiment: P-glycoprotein substrate recognition test (LLC-GA5-COL300 cells, transwell); type: in vitro ADME; settings: LLC-PK1, ratio of membrane permeation coefficients for apical→basal and basal→apical directions
T3 construct: expressed in transfected cells; host or cells: LLC-GA5-COL300 (LLC-PK1 pig kidney epithelial cells expressing human MDR1)
Method: (Test 4: P-Glycoprotein Substrate Recognition Test)
LLC-GA5-COL300 cells (Human MDR1 expressing system derived from pig kidney derived, cultured renal epithelial cell line LLC-PK1) were cultured on a transwell. Immediately before the test, the culture medium was replaced by Hank's balanced salt solution (HBSS) and the test was then conducted. A solution of an assay compound adjusted to a final concentration of 10 μM was added to the donor side of LLC-GA5-COL300 cells and after the passage of a predetermined period of time, a specified quantity of […] was sampled from the acceptor side. The concentration of the assay compound in the sample was measured by LC-MS/MS. From the amounts of the compound that accumulated and passed into the acceptor side, membrane permeation coefficients (×10^−6 cm/sec) were calculated for apical→basal and basal→apical directions and their relative ratio (efflux ratio) was determined to evaluate the P-glycoprotein substrate recognition.

[3] = brain, read-out: intracerebral concentration
[4] = brain/plasma, read-out: brain/plasma movement ratio
[5] = cerebrospinal fluid, read-out: cerebrospinal fluid concentration
[6] = cerebrospinal fluid/plasma, read-out: cerebrospinal fluid/plasma movement ratio

T3 sequence (P08183 whole entry): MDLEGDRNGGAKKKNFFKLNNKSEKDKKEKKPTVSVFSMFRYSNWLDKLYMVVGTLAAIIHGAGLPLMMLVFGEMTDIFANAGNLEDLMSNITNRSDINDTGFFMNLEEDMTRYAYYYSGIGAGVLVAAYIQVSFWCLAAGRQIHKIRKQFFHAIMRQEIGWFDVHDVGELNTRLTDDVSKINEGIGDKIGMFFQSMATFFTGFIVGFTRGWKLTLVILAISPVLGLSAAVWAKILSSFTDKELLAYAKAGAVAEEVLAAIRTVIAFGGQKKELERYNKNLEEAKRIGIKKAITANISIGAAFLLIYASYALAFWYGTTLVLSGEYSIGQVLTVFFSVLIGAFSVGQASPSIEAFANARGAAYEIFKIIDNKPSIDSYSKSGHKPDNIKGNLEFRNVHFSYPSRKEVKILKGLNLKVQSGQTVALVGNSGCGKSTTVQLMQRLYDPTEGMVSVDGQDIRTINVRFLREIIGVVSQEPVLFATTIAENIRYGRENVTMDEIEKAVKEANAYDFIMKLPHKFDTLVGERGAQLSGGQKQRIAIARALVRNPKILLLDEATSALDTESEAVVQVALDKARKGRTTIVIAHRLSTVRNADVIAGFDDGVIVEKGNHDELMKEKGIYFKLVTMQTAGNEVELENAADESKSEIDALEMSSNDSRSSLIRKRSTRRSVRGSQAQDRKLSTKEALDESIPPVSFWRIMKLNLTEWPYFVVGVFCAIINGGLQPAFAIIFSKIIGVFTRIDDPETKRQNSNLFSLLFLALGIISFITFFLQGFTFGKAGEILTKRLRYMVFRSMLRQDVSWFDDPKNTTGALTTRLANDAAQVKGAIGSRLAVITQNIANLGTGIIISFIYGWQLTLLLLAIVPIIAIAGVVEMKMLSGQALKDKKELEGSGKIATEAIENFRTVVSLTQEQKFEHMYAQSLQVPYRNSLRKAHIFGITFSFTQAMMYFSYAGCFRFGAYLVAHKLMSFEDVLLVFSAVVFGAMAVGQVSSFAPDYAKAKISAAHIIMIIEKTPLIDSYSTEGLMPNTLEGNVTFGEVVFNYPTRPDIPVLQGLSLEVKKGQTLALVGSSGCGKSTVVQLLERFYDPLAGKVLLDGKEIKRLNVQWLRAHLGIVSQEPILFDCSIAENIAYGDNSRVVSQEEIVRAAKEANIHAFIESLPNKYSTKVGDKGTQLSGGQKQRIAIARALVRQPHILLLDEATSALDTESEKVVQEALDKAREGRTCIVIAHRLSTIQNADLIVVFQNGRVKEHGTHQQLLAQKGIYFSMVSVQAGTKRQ
T1 sequence (Q9QYN8 whole entry): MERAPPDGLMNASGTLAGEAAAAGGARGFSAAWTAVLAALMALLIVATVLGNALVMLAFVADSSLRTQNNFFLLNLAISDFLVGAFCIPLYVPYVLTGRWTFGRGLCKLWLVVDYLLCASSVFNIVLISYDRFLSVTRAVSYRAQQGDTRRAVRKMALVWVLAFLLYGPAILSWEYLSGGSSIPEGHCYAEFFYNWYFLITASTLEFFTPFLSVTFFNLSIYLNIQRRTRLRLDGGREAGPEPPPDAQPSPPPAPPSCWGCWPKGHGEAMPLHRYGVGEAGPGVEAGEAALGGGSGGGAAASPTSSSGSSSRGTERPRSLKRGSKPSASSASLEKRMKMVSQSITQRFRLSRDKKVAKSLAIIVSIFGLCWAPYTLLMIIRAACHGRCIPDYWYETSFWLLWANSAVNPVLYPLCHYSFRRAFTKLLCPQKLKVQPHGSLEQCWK
T2 sequence (Q9QYN8 whole entry): as above

IC50 (H3 receptor)	IC50 (histamine H3 receptor)	concentration at 1 h [1, 3]	Kp at 1 h [1, 4]	concentration at 1 h [1, 5]	Kp at 1 h [1, 6]	efflux ratio at 10 μM [2]	SMILES
1.8 nM	≤ 100 nM	45.7 ng/g	3	2.9 ng/mL	0.2	1	O=C(c1cn(-c2ccc(OC3CCN(C4CCC4)CC3)cc2)nn1)N1CCCC1 [Compound No. 8, (1-{4-[(1-cyclobutylpiperidin-4-yl)oxy]phenyl}-1H-1,2,3-triazol-4-yl)(pyrrolidin-1-yl)methanone]
22 nM	–	820 ng/g	4.4	134 ng/mL	0.7	0.7	CNC(=O)c1cn(-c2ccc(OC3CCN(C4CCC4)CC3)cc2)nn1 [Compound No. 19, 1-{4-[(1-cyclobutylpiperidin-4-yl)oxy]phenyl}-N-methyl-1H-1,2,3-triazole-4-carboxamide]
5.4 nM	–	209 ng/g	1.5	67.6 ng/mL	0.5	1.1	OCc1cn(-c2ccc(OC3CCN(C4CCC4)CC3)cc2)nn1 [Compound No. 22, (1-{4-[(1-cyclobutylpiperidin-4-yl)oxy]phenyl}-1H-1,2,3-triazol-4-yl)methanol]
8.9 nM	–	–	–	–	–	–	C[C@@H]1CCCN1CCCOc1ccc(-n2cc(C(=O)N3CCCC3)nn2)cc1 [compound 15, [1-(4-{3-[(2R)-2-methylpyrrolidin-1-yl]propoxy}phenyl)-1H-1,2,3-triazol-4-yl](pyrrolidin-1-yl)methanone]
16 nM	–	–	–	–	–	–	C[C@@H]1CCCN1CCCOc1ccc(-n2cc(C(=O)N3CCC3)nn2)cc1 [compound 16, azetidin-1-yl[1-(4-{3-[(2R)-2-methylpyrrolidin-1-yl]propoxy}phenyl)-1H-1,2,3-triazol-4-yl]methanone]
